Data as given in patent US20050222127A1, “Use of Rho kinase inhibitors in the treatment of hearing loss, tinnitus and improving body balance” (Alcon, Inc., priority 2004, published 2005).

Experiments:
[1] = molecular target: T1, Human recombinant Rho kinase (ROKα/ROCK-II, aa 11-552) (Homo sapiens, UniProt O75116); assay: [γ-33P]-ATP-based Rho kinase assay; format: biochemical; conditions: mean ± SEM; 100 μM ATP, Long S6 substrate peptide 30 μM, 30 min at 30° C.; read-out: Rho Kinase Inhibition Constants (IC50), [γ-33P]-ATP-Based Assay
T1 construct: ROKα/ROCK-II, (aa 11-552), human active, catalog #14-451; purchased Upstate Biotechnology Co., Lake Placid, N.Y. 14-451
Protocol: (§1) Rho kinase activity and inhibition of activity by test compounds in vitro is carried out using a radioactive assay or a fluorescence polarization assay as described herein.
The enzyme assays are performed using a Biomek 2000 Robotic Workstation (Beckman Instruments, Palo Alto, Calif.) in a 96-well format using [γ-^33P]-ATP (Perkin-Elmer Life Sciences, Boston, Mass.). Stock [γ-^33P] ATP (3000 Ci/mmol) is diluted to 1 μCi/μl with the MgCl2/ATP cocktail solution. The concentrations of MgCl2/ATP used are 15 mM and 100 μM, respectively. […] The substrate and enzyme are diluted in 20 mM MOPS buffer (pH 7.2), 25 mM β-glycerol phosphate, 5 mM EGTA, 1.0 mM sodium orthovanadate, and 1.0 mM DTT. Test compound dilutions are made in 10:10 dimethyl sulfoxide-ethanol (vol/vol). In the following order, substrate, enzyme, test compound dilution, and [γ-33P]-ATP are added to the 96-well plates for a final volume of 100 μl per well. […] The radioactivity captured on the filter mats is then determined on a beta-counter.

Rho kinase (ROCK II) = molecular target: T2, Rho kinase (ROCK II) (Homo sapiens, UniProt O75116); assay: IMAP fluorescence polarization Rho kinase assay (IMAP ROCK II kit); format: biochemical; conditions: mean ± SEM; 10 μM ATP, substrate 200 nM, 60 min at 23° C.; read-out: Rho Kinase Inhibition Constants (IC50), IMAP Fluorescence Polarization-Based Assay
T2 construct: purchased Molecular Devices, Sunnyvale, Calif
Protocol: as §1
The fluorescence polarization assays are performed using a Biomek 2000 Robotic Workstation (Beckman Instruments, Palo Alto, Calif.) in a 96-well plate format. The assay is performed utilizing the IMAP ROCK II kit (Molecular Devices, Sunnyvale, Calif.) as follows. […] The substrate, enzyme, and ATP dilutions are made with the reaction buffer provided by the vendor. Test compounds are diluted in 10:10 DMSO-ethanol (vol/vol). For the actual assay, the various components are added into black, clear bottom, 96-well plates (Costar, Corning, N.Y.) in a final volume of 20 μl per well. After the enzyme reaction (60 min at 23° C.), 60 μl of the binding solution (IMAP kit provided by vendor) is added per well and incubated for an additional 30 minutes in the dark at 23° C. Fluorescence polarization of the reaction mixtures is then measured on the Analyst™ HT instrument (Molecular Devices, Sunnyvale, Calif.). The data are then analyzed using a non-linear, iterative, sigmoidal-fit computer program purchased from IDBS (Emeryville, Calif.) and as previously described (Sharif et al., ibid.) to generate the inhibition constants for the test compounds.

T2 sequence (O75116 whole entry, species assumed): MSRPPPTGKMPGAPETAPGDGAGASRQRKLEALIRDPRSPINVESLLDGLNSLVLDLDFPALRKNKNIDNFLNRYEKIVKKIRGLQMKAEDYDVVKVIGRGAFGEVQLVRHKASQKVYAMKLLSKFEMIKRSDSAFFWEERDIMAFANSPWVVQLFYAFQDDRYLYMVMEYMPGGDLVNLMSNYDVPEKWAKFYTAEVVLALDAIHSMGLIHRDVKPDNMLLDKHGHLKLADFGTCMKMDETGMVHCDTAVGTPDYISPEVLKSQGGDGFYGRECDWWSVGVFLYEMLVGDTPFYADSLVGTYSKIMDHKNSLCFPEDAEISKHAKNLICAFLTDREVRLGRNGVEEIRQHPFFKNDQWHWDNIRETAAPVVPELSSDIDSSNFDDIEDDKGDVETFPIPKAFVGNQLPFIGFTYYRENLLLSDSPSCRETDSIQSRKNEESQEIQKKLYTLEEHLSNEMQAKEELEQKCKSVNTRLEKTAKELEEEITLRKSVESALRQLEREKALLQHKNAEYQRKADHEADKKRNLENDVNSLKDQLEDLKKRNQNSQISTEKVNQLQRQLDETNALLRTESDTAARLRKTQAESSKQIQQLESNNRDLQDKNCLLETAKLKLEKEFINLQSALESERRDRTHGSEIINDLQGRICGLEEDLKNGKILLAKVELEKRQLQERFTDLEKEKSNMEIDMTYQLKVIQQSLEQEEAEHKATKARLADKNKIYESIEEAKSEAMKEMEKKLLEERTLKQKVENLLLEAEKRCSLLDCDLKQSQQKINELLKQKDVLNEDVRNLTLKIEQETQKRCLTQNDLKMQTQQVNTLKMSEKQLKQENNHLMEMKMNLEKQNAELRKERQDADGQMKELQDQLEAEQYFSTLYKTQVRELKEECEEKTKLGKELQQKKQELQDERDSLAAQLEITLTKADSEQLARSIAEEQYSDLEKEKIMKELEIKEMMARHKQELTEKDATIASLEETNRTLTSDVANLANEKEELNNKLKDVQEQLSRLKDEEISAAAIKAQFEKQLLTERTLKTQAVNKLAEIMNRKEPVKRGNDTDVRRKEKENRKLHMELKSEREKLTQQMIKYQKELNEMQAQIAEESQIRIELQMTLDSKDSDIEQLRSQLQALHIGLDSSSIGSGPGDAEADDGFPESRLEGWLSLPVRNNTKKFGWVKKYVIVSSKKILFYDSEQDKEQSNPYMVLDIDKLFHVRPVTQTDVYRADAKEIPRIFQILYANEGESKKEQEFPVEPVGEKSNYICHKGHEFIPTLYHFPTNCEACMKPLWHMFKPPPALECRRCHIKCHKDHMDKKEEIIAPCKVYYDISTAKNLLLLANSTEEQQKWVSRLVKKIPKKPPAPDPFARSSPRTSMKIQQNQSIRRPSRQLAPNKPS
T1 sequence (O75116 11-552): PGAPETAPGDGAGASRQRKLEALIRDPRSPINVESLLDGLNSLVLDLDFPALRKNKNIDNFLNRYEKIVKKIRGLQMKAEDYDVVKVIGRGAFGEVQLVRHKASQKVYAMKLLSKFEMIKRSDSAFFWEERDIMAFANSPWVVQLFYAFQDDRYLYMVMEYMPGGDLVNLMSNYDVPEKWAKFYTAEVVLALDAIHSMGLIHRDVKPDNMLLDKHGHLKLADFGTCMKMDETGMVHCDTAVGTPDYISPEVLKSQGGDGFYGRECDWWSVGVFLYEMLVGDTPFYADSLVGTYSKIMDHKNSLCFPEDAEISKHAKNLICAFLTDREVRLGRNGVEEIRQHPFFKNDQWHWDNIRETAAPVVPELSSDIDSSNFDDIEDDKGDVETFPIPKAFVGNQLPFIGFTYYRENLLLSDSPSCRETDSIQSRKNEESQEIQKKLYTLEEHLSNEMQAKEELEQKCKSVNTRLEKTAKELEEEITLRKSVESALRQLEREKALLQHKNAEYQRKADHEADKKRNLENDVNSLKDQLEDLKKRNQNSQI

SMILES | IC50 [1] | IC50 (Rho kinase (ROCK II))
CC1CNCCN1S(=O)(=O)c1cccc2cnccc12 (centres unmarked) [B, reference compound] | 2340 ± 395 nM | 913 ± 644 nM
Cc1cncc2cccc(S(=O)(=O)N3CCCN(C)CC3C)c12 (centres unmarked) [E] | 485 ± 207 nM | 108 ± 53 nM
Cc1cncc2cccc(S(=O)(=O)N3CCCN(C)C(C)C3)c12 (centres unmarked) [D] | 3460 ± 1800 nM | 270 ± 113 nM

Other lines, results leading:

IC50 [1] | IC50 (Rho kinase (ROCK II)) | SMILES
6700 ± 900 nM |  | CC1CN(S(=O)(=O)c2cccc3cnccc23)CCN1 (centres unmarked) [I, reference compound]
2630 ± 307 nM | 2390 ± 1260 nM | Cc1cncc2cccc(S(=O)(=O)N3CCNC(C)C3)c12 (centres unmarked) [G]
1510 ± 704 nM | 2010 ± 85 nM | Cc1cncc2cccc(S(=O)(=O)N3CCCNC(C)(C)C3)c12 [F]
